Results from US7595327B2, “Beta-sulfonamide hydroxamic acid inhibitors of tace/matrix metalloproteinase” (priority 2005, dated 2009).
Counter-ions that a name gives are not always drawn.

Tests used:
[1] = tested on: LPS-induced TNF-α secretion in human whole blood; test: Human whole blood assay for LPS-induced TNF-α secretion; format: cell-based; settings: Homo sapiens, LPS 100 ng/ml, read-out: TNF Secretion HWB IC50
Experimental: procedure is essentially as described in Newton, R. C., et al., (2001) Ann Rheum […]32, incorporated by reference herein in its entirety. The basic measurement of the assay is the percentage of inhibition of TNF-α secretion and the IC50 determination by a […] model-39 of LSW data analysis tool. 350 μl of fresh human blood drawn from healthy volunteers were pre-incubated with compounds for one hour at the various concentrations at 37° C. with turning generally, the final DMSO concentrations should be kept below 0.2%. At the end of cubation, LPS (Sigma, L2262) was added to the blood at 100 ng/ml and the samples were further incubated for 4 hours or overnight at 37° C. with constant rotation. At the end of the incubation period, 650 μl of serum-free medium was added to the blood samples and the samples were centrifuged at 1500 rpm for 15 minutes. 500 μl of supernate was collected and frozen at -80° C. The TNF-α and other proinflammatory cytokines were detected by ELISA assay according to the manufacturer's instruction (Biosource International, Inc., Camarillo, Calif.).

[2] = target: T1, recombinant human MMP-2 (Homo sapiens, UniProt P08253); test: In-vitro fluorescence assay of MMP-2 activity; format: biochemical
T1 sequence (P08253 110-660): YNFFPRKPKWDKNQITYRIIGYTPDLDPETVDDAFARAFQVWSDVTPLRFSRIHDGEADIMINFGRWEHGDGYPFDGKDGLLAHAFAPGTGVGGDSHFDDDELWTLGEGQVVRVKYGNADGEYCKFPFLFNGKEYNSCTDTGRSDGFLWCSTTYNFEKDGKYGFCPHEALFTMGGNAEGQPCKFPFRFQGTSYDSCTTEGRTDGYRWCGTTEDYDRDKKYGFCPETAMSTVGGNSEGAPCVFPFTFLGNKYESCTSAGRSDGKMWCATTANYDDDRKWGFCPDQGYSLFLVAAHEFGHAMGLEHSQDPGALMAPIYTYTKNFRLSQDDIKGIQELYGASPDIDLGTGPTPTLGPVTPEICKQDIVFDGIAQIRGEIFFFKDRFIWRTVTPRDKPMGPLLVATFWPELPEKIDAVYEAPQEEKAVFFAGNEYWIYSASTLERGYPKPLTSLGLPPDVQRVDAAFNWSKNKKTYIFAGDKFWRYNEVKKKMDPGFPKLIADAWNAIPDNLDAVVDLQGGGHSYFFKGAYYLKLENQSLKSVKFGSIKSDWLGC

[3] = target: T2, TACE (catalytic domain of the recombinant TACE protein) (Homo sapiens, UniProt P78536); test: TACE FRET assay using TACE Cat; format: biochemical; settings: FRET, pro-TNF-α substrate peptide; read-out: TACE IC50
T2 construct: The catalytic domain of the recombinant TACE protein was expressed and purified; made in house
T2 sequence (P78536 223-474 limits assumed): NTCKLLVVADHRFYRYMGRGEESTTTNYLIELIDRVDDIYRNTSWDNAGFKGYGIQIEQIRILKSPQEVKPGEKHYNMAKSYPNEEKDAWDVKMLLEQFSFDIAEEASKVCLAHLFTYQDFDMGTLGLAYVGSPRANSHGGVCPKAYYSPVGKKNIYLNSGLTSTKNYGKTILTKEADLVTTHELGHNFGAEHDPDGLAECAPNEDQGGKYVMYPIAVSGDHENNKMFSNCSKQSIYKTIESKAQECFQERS
Experimental: The procedure is essentially as described in Jin, G. et al., Analytical Biochemistry (2002) 302, 269-275, incorporated by reference herein in its entirety. […] K is the IC50. Generally, n and B are floated, noting that n (hill slope) should be close to 1 and B (background offset) to 0.
Pro-TNF-α substrate peptide Abz-[…]-Dpa (AnaSpec, San Jose, Calif., WARC-1) was prepared as a 2 mM stock solution in the TACE assay buffer (50 mM Tris-HCI, pH 7.4, 25 mM NaCl, 4% Glycerol, 0.005% Brij 35). The catalytic domain of the recombinant TACE protein was expressed and purified. The TACE protein (1 ug/ml) was pretreated with the inhibitors at various concentrations for 10 min at room temperature. The reaction was initiated by the addition of the substrate peptide. The increase in fluorescence was monitored at an Excitation of 320 nm and an Emission of 420 nm over a period of 10 min. The initial rate (slope) of the reaction was determined using a fluorescence plate reader (Molecular Devices, Spectra Max Gemini XS).

[4] = target: MMP-13 (Homo sapiens, UniProt P45452); test: In-vitro fluorescence assay of MMP-13 activity; format: biochemical
Experimental: See Knight, C. […] […].
The method was essentially the same as for the determination of MMP-1 activity, described above, except that the final concentration of purified MMP in the assay was 0.5 nM, prepared by diluting with the assay buffer.

[5] = tested on: TNF-α secretion in Raw 264.7 cells; test: Cell-based assay for inhibition of TNF-α secretion in Raw cells; settings: Mus musculus, RAW264.7, LPS 100 ng/ml, 4 hr
Experimental: The basic measurement of the assay is the percentage of inhibition of TNF-α secretion and the IC50 determination by a fitting with the model-39 of LSW data analysis tool. […] Cells are split twice a week by scraping and 1 to 10 or 20 dilutions. For testing compounds, cells are cultured to confluence and are seeded the day before the experiment in 24 well culture dishes at 0.5 to 1 million/ml well. On the next morning, the medium from the overnight culture is replaced with the fresh growth medium. The compounds are added at various concentration at the 0.2% of final DMSO concentrations (10 μl of a 20% DMSO solution containing testing compounds is added to each well). The cells are pre-incubated with compounds for 1 hr. LPS (Sigma, L2262) is added to cells at a final concentration of 100 ng/ml (10 μl of a […] LPS solution freshly diluted from a 1 mg/ml LPS stock solution in PBS is added to each well) and cells are further incubated for 4 hr at 37° C. 1 ml of the supernatant was collected, cells are spun down and the supernatants are frozen at −80° C. until use. The TNF-α and other proinflammatory cytokines were detected by an ELISA assay according to the manufacturer's instructions (Biosource International, Inc., Camarillo, Calif. (For IL-1b measurement in Raw cells, one round of freeze and thaw of the cells was required).

| IC50 [1] [µM] | IC50 [2] [µM] | IC50 [3] [µM] | IC50 [4] [µM] | IC50 [5] [µM] | Structure (SMILES) |
| --- | --- | --- | --- | --- | --- |
| 4.7 | > 16.7 | 0.0007 | > 16.7 | 0.058 | Cc1cc(COc2ccc(S(=O)(=O)N[C@@H]3CN(C(=O)OC(C)(C)C)CCC3C(=O)NO)cc2)c2ccccc2n1 (stereo in doubt) [Example 33, (3S,4R)-4-Hydroxycarbamoyl-3-[4-(2-methyl-quinolin-4-ylmethoxy)-benzenesulfonylamino]-piperidine-1-carboxylic acid tert-butyl ester] |
| 0.086 | > 16.7 | 0.0008 | 13.2 | 0.007 | Cc1cc(COc2ccc(S(=O)(=O)N[C@@H]3CCN(C=O)C[C@@H]3C(=O)NO)cc2)c2ccccc2n1 [Example 29, (3S,4R)-1-Formyl-4-[4-(2-methyl-quinolin-4-ylmethoxy)-benzenesulfonylamino]-piperidine-3-carboxylic acid hydroxyamide] |
| 0.25 | > 10 | < 0.0006 | 9.09 | 0.03 | Cc1cc(COc2ccc(S(=O)(=O)N[C@H]3CCN(C(=O)NC(C)(C)C)C[C@H]3C(=O)NO)cc2)c2ccccc2n1 [Example 30, (3S,4R)-4-[4-(2-Methyl-quinolin-4-ylmethoxy)-benzenesulfonylamino]-piperidine-1,3-dicarboxylic acid 1-tert-butylamide 3-hydroxyamide] |
| 46 | > 16.7 | 0.0005 | > 16.7 | 1.67 | Cc1cc(COc2ccc(S(=O)(=O)N[C@@H]3CCOC[C@]3(C)C(=O)NO)cc2)c2ccccc2n1 [Example 44, (3R,4R)-N-hydroxy-3-methyl-4-[({4-[(2-methylquinolin-4-yl)methoxy]phenyl}sulfonyl)amino]tetrahydro-2H-pyran-3-carboxamide] |
| > 50 | > 16.7 | 0.0062 | > 16.7 | 1.92 | Cc1cc(COc2ccc(S(=O)(=O)N[C@@H]3CCOC[C@@]3(C)C(=O)NO)cc2)c2ccccc2n1 [Example 45, (3S,4R)-N-hydroxy-3-methyl-4-[({4-[(2-methylquinolin-4-yl)methoxy]phenyl}sulfonyl)amino]tetrahydro-2H-pyran-3-carboxamide] |
| 2.9 | > 16.7 | 0.0014 | > 16.7 | 0.16 | Cc1cc(COc2ccc(S(=O)(=O)N[C@@H]3CCN(C=O)C[C@]3(O)C(=O)NO)cc2)c2ccccc2n1 [Example 46, 4-({4-[({(3R,4R)-1-Formyl-3-hydroxy-3-[(hydroxyamino)carbonyl]piperidin-4-yl}amino)sulfonyl]phenoxy}methyl)-2-methylquinolinium trifluoroacetic acid salt] |
| > 50 | > 16.7 | 0.0064 | > 16.7 | > 1 | CC(=O)N1CC[C@@H](NS(=O)(=O)c2ccc(OCc3cc(C)nc4ccccc34)cc2)[C@@](C)(C(=O)NO)C1 [Example 47, (3S,4R)-1-acetyl-N-hydroxy-3-methyl-4-[({4-[(2-methylquinolin-4-yl)methoxy]phenyl}sulfonyl)amino]piperidine-3-carboxamide] |
| > 50 | > 16.7 | 0.211 | > 16.7 | > 1 | Cc1cc(COc2ccc(S(=O)(=O)N[C@@H]3CCN(C(C)C)C[C@]3(C)C(=O)NO)cc2)c2ccccc2n1 [Example 48, (3S,4R)-N-hydroxy-1-isopropyl-3-methyl-4-[({4-[(2-methylquinolin-4-yl)methoxy]phenyl}sulfonyl)amino]piperidine-3-carboxamide] |
| > 50 | > 16.7 | 0.019 | > 16.7 | > 1 | C#CCN1CC[C@@H](NS(=O)(=O)c2ccc(OCc3cc(C)nc4ccccc34)cc2)[C@@](C)(C(=O)NO)C1 [Example 49, (3S,4R)-N-hydroxy-3-methyl-4-[({4-[(2-methylquinolin-4-yl)methoxy]phenyl}sulfonyl)amino]-1-prop-2-yn-1-ylpiperidine-3-carboxamide] |
| 22 | > 16.7 | 0.0037 | > 16.7 | > 1 | CNC(=O)N1CC[C@@H](NS(=O)(=O)c2ccc(OCc3cc(C)nc4ccccc34)cc2)[C@@](C)(C(=O)NO)C1 [Example 50] |
| 30 | > 16.7 | < 0.0006 | > 10 | > 1 | Cc1cc(COc2ccc(S(=O)(=O)N[C@@H]3CCN(C=O)C[C@]3(C)C(=O)NO)cc2)c2ccccc2n1 [Example 51, (3S,4R)-1-formyl-N-hydroxy-3-methyl-4-[({4-[(2-methylquinolin-4-yl)methoxy]phenyl}sulfonyl)amino]piperidine-3-carboxamide] |
| 37 | > 16.7 | 0.0024 | > 10 | 0.762 | Cc1cc(COc2ccc(S(=O)(=O)N[C@@H]3CCN(S(=O)(=O)C(C)C)C[C@]3(C)C(=O)NO)cc2)c2ccccc2n1 [Example 52, (3S,4R)-N-hydroxy-1-(isopropylsulfonyl)-3-methyl-4-[({4-[(2-methylquinolin-4-yl)methoxy]phenyl}sulfonyl)amino]piperidine-3-carboxamide] |
| 3.6 | > 16.7 | 0.0004 | > 16.7 | 0.082 | Cc1cc(COc2ccc(S(=O)(=O)N[C@@H]3CCC[C@]3(O)C(=O)NO)cc2)c2ccccc2n1 [Example 53, (1R,2R)-N,1-dihydroxy-2-[({4-[(2-methylquinolin-4-yl)methoxy]phenyl}sulfonyl)amino]cyclopentanecarboxamide] |
| 2.3 | > 16.7 | < 0.0006 | > 10 | 0.019 | Cc1cc(COc2ccc(S(=O)(=O)N[C@@H]3CCC[C@]3(F)C(=O)NO)cc2)c2ccccc2n1 [Example 54, (1R,2R)-1-fluoro-N-hydroxy-2-[((4-[(2-methylquinolin-4-yl)methoxy]phenyl}sulfonyl)amino]cyclopentanecarboxamide] |
